Data as given in PubChem BioAssay (NCI).
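Grown in 96-well plates, cells were treated for 48 hours with each compound at five concentrations. Insufficient inhibition: endpoint recorded as highest concentration tested. The concentration for full growth arrest is given as TGI.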

Tests used:
Experiment in all cases: growth of human tumour cells (NCI), 48 h
[1] = test system: DMS 114 small cell lung
[2] = test system: SR leukemia
[3] = test system: HOP-62 NSCLC
[4] = test system: MALME-3M melanoma
[5] = test system: IGROV1 ovarian
[6] = test system: HCC-2998 colon
[7] = test system: LOX IMVI melanoma
[8] = test system: M14 melanoma
[9] = test system: RPMI-8226 leukemia
[10] = test system: OVCAR-8 ovarian
[11] = test system: U251 CNS
[12] = test system: KM12 colon
[13] = test system: SNB-19 CNS
[14] = test system: UO-31 renal
[15] = test system: NCI-H522 lung
[16] = test system: XF 498 CNS
[17] = test system: UACC-62 melanoma
[18] = test system: DMS 273 small cell lung
[19] = test system: SK-MEL-28 melanoma
[20] = test system: NCI-H23 lung
[21] = test system: SW-620 colon
[22] = test system: A549 NSCLC
[23] = test system: TK-10 renal
[24] = test system: HOP-18 NSCLC
[25] = test system: M19-MEL melanoma
[26] = test system: COLO 205 colon
[27] = test system: SNB-75 CNS
[28] = test system: NCI-H460 lung
[29] = test system: SF-539 CNS
[30] = test system: HCT-116 colon
[31] = test system: KM20L2 colon
[32] = test system: SK-MEL-5 melanoma
[33] = test system: SF-295 CNS
[34] = test system: K-562 leukemia
[35] = test system: HT29 colon
[36] = test system: CAKI-1 renal
[37] = test system: NCI-H226 lung
[38] = test system: SK-MEL-2 melanoma
[39] = test system: 786-0 renal
[40] = test system: ACHN renal
[41] = test system: SN12C renal
[42] = test system: HCT-15 colon
[43] = test system: MOLT-4 leukemia
[44] = test system: SK-OV-3 ovarian
[45] = test system: DLD-1 colon
[46] = test system: OVCAR-3 ovarian
[47] = test system: HOP-92 NSCLC
[48] = test system: LXFL 529 NSCLC
[49] = test system: HL-60(TB) leukemia
[50] = test system: CCRF-CEM leukemia
[51] = test system: SNB-78 CNS
[52] = test system: OVCAR-5 ovarian
[53] = test system: RXF 393 renal
[54] = test system: EKVX NSCLC
[55] = test system: UACC-257 melanoma
[56] = test system: SF-268 CNS
[57] = test system: OVCAR-4 ovarian
[58] = test system: A498 renal
[59] = test system: RXF-631 renal

[N-]=[N+]=NC(CI)c1cn([C@H]2C[C@H](O)[C@@H](CO)O2)c(=O)[nH]c1=O (stereo partly drawn)
TGI [1]: > 100 µM | TGI [2]: > 100 µM | TGI [3]: > 100 µM | TGI [4]: > 100 µM | TGI [5]: > 100 µM | TGI [6]: > 100 µM | TGI [7]: > 100 µM | TGI [8]: > 100 µM | TGI [9]: > 100 µM | TGI [10]: > 100 µM | TGI [11]: > 100 µM | TGI [12]: > 100 µM | TGI [13]: > 100 µM | TGI [14]: > 100 µM | TGI [15]: > 100 µM | TGI [16]: > 100 µM | TGI [17]: > 100 µM | TGI [18]: > 100 µM | TGI [19]: > 100 µM | TGI [20]: > 100 µM | TGI [21]: > 100 µM | TGI [22]: > 100 µM | TGI [23]: > 100 µM | TGI [24]: > 100 µM | TGI [25]: > 100 µM | TGI [26]: > 100 µM | TGI [27]: > 100 µM | TGI [28]: > 100 µM | TGI [29]: > 100 µM | TGI [30]: > 100 µM | TGI [31]: > 100 µM | TGI [32]: > 100 µM | TGI [33]: > 100 µM | TGI [34]: > 100 µM | TGI [35]: > 100 µM | TGI [36]: > 100 µM | TGI [37]: > 100 µM | TGI [38]: > 100 µM | TGI [39]: > 100 µM | TGI [40]: > 100 µM | TGI [41]: > 100 µM | TGI [42]: > 100 µM | TGI [43]: > 100 µM | TGI [44]: > 100 µM | TGI [45]: > 100 µM | TGI [46]: > 100 µM | TGI [47]: > 100 µM | TGI [48]: > 100 µM | TGI [49]: > 100 µM | TGI [50]: > 100 µM | TGI [51]: > 100 µM | TGI [52]: > 100 µM | TGI [53]: > 100 µM | TGI [54]: > 100 µM

COc1ccc(C(=O)Cc2ccc(Br)cc2)cc1OC
TGI [55]: > 100 µM | TGI [1]: > 100 µM | TGI [2]: > 100 µM | TGI [3]: > 100 µM | TGI [4]: > 100 µM | TGI [5]: > 100 µM | TGI [6]: > 100 µM | TGI [7]: > 100 µM | TGI [8]: > 100 µM | TGI [9]: > 100 µM | TGI [10]: > 100 µM | TGI [11]: > 100 µM | TGI [56]: > 100 µM | TGI [13]: > 100 µM | TGI [57]: > 100 µM | TGI [14]: > 100 µM | TGI [58]: > 100 µM | TGI [15]: > 100 µM | TGI [16]: 71 µM | TGI [17]: > 100 µM | TGI [18]: > 100 µM | TGI [20]: > 100 µM | TGI [21]: > 100 µM | TGI [22]: > 100 µM | TGI [23]: > 100 µM | TGI [24]: > 100 µM | TGI [25]: > 100 µM | TGI [27]: 54.5 µM | TGI [28]: > 100 µM | TGI [29]: > 100 µM | TGI [30]: > 100 µM | TGI [59]: > 100 µM | TGI [31]: > 100 µM | TGI [32]: > 100 µM | TGI [33]: > 100 µM | TGI [34]: > 100 µM | TGI [35]: > 100 µM | TGI [36]: > 100 µM | TGI [37]: > 100 µM | TGI [38]: > 100 µM | TGI [40]: > 100 µM | TGI [41]: > 100 µM | TGI [42]: > 100 µM | TGI [43]: > 100 µM | TGI [44]: > 100 µM | TGI [45]: > 100 µM | TGI [46]: > 100 µM | TGI [48]: > 100 µM | TGI [49]: > 100 µM | TGI [50]: > 100 µM | TGI [51]: > 100 µM | TGI [52]: > 100 µM | TGI [53]: > 100 µM | TGI [54]: > 100 µM
